Test results as given in patent US20240158392A1 (Janssen Biotech, Inc., priority 2021, published 2024).

biological target: T1, SIK2 (Homo sapiens, UniProt Q9H0K1); experiment: SIK2 Enzymatic Assay High Version 2 (High ATP); type: biochemical; details: not given
In short: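 At room temperature, enzyme (6 nM, 2× final) was preincubated with compound for 30 min, then 6 mM ATP and 400 μM HDAC5tide (both 2× final) were added for 2 h. ADP formed was measured by ADP-Glo Max (2 h reagent, 1 h detection) using luminescence.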

T1 sequence (Q9H0K1 whole entry, species assumed): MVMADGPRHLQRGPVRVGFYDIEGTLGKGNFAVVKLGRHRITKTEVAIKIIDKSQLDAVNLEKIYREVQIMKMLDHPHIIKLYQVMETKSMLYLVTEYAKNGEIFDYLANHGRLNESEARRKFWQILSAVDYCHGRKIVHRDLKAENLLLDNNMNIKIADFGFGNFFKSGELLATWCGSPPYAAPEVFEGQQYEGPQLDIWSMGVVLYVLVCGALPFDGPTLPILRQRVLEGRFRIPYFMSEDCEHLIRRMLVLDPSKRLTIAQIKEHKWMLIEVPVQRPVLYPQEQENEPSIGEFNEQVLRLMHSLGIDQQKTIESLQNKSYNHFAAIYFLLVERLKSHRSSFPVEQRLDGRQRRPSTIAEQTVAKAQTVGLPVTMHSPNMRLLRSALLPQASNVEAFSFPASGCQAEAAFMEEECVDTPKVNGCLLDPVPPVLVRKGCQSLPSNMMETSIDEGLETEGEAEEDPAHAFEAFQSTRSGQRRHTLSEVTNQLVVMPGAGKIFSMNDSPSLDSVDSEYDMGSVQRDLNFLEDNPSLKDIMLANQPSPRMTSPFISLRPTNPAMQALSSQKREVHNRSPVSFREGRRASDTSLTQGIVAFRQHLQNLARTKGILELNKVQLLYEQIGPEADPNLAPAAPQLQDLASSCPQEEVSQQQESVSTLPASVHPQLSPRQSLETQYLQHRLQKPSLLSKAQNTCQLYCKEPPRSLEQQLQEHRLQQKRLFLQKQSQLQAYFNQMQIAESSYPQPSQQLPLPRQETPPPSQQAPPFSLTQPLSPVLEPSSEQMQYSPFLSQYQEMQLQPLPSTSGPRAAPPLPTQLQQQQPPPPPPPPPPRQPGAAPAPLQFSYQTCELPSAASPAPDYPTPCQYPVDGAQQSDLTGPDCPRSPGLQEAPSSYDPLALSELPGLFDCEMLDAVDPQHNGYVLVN

Which IC50 does the source give for `Cc1cc(-c2ccn3nc(Nc4cncnc4)cc3c2)c(O[C@H]2C[C@H]3COC[C@@H](C2)N3C)cn1` [Example 415, 5-[2-methyl-5-[[(1S,5R,7s)-9-methyl-3-oxa-9-azabicyclo[3.3.1]nonan-7-yl]oxy]-4-pyridyl]-N-pyrimidin-5-yl-pyrazolo[1,5-a]pyridin-2-amine] here?
Its IC50 is under 0.000847 µM.

same assay, conditions: enzyme 6 nM, 6 mM ATP and 400 μM HDAC5tide (each 2× final concentration); 30 minutes pre-incubation, 2 hours; ADP-Glo Max luminescence; read-out: SIK2 high ATP IC50 (μM) (Test Example 2)

Which IC50 does the source give for `Cc1cc(Nc2cc3cc(-c4cc(OC(F)F)ncc4OCC(C)(C)C(=O)N(C)C)ccn3n2)nc(C)n1` [Example 728, 3-[[6-(difluoromethoxy)-4-[2-[(2,6-dimethylpyrimidin-4-yl)amino]pyrazolo[1,5-a]pyridin-5-yl]-3-pyridyl]oxy]-N,N,2,2-tetramethyl-propanamide] here?
Its IC50 is 0.0049 µM.

biological target: T1, SIK2; experiment: SIK2 Enzymatic Assay Version 1 (ADP Glo); type: biochemical; details: enzyme 0.6 nM, 160 μM ATP and 140 μM HDAC5tide (each 2× final concentration); 30 minutes pre-incubation, 4 hours; ADPGlo luminescence; read-out: SIK2 ADP Glo IC50 (μM) (Test Example 1)
Procedure: All steps were performed at room temperature. Compounds were pre-plated onto an assay plate using an Echo acoustic dispenser (Labcyte, E550 or E555) at 20 nL per well. Enzyme prepared in Assay Buffer at 0.6 nM (2× final concentration) was added at 2 μL per well using the Multidrop Combi (Thermo Fisher—used for all additions in this assay) to the assay plate, spun for 1 min at 800-850 rpm (Allegra 6KR Beckman Coulter centrifuge), and incubated with compound for 30 minutes.
One column of wells was dedicated to a no-peptide negative control (containing only ATP). ADPGlo Reagent (prepared and aliquoted as per manufacturer instructions) was then added at 2 μL per well, spun and incubated for 40 min. ADPGlo Detection (prepared and aliquoted as per manufacturer instructions) was added at 2 μL per well to the assay plate, which was spun and incubated for at least 30 min. The plate was then read on the Pherastar (BMG Labtech) using a luminescence read. Gain was set by the 0.1 mM concentration of ADP wells in the ADP/ATP standard curve plate generated as per manufacturer instructions.

Which IC50 does the source give for `CNC(=O)C1CN(c2cnc(C#N)cc2-c2ccn3nc(NC(=O)C4CC4)cc3c2)C1` [Example 73, 1-[6-cyano-4-[2-(cyclopropanecarbonylamino)pyrazolo[1,5-a]pyridin-5-yl]-3-pyridyl]-N-methyl-azetidine-3-carboxamide] here?
Its IC50 is 0.0846 µM.

How did the IC50 turn out when `COc1cccnc1-c1ccn2nc(NC(=O)C3CC3)cc2c1` [Example 750, N-[5-(3-methoxy-2-pyridyl)pyrazolo[1,5-a]pyridin-2-yl]cyclopropanecarboxamide] was run?
The IC50 was 0.45 µM.

How did the IC50 turn out when `N#Cc1cc(-c2ccn3nc(NC(=O)C4CC4)cc3c2)c(NCC2CC2)cn1` [Example 76, N-[5-[2-cyano-5-(cyclopropylmethylamino)-4-pyridyl]pyrazolo[1,5-a]pyridin-2-yl]cyclopropanecarboxamide] was run?
The IC50 was 0.0255 µM.

For `COc1c(C)cccc1-c1ccn2nc(NC(=O)C3CC3)cc2c1` [Example 747, N-[5-(2-methoxy-3-methyl-phenyl)pyrazolo[1,5-a]pyridin-2-yl]cyclopropanecarboxamide], which IC50 is on record?
The IC50 was 0.0312 µM.

Which IC50 does the source give for `CC(C)(C)OC(=O)N1CC2(CC(Oc3cnc(C#N)cc3-c3ccn4nc(NC(=O)C5CC5)cc4c3)C2)C1` [Example 34, tert-butyl 2-[[6-cyano-4-[2-(cyclopropanecarbonylamino)pyrazolo[1,5-a]pyridin-5-yl]-3-pyridyl]oxy]-6-azaspiro[3.3]heptane-6-carboxylate] here?
Its IC50 is 0.0227 µM.

`N#Cc1cc(-c2ccn3nc(NC(=O)C4CC4)cc3c2)c(NC2CC2)cn1` [Example 80, N-[5-[2-cyano-5-(cyclopropylamino)-4-pyridyl]pyrazolo[1,5-a]pyridin-2-yl]cyclopropanecarboxamide] was tested. Which IC50 did it give?
The IC50 was 0.0703 µM.

`CCN1CC(Oc2cnc(C)cc2-c2ccn3nc(NC(=O)C4CC4)cc3c2)C1` [Example 141, N-[5-[5-(1-ethylazetidin-3-yl)oxy-2-methyl-4-pyridyl]pyrazolo[1,5-a]pyridin-2-yl]cyclopropanecarboxamide] was tested. Which IC50 did it give?
The IC50 was 0.0138 µM.

Which IC50 does the source give for `COc1ccncc1-c1ccn2nc(NC(=O)C3CC3)cc2c1` [Example 751, N-[5-(4-methoxy-3-pyridyl)pyrazolo[1,5-a]pyridin-2-yl]cyclopropanecarboxamide] here?
Its IC50 is 0.198 µM.

For `CN1C[C@@H](Oc2cnc(C#N)cc2-c2ccn3nc(NC(=O)C4CC4)cc3c2)C[C@@H](C(F)(F)F)C1` [Example 28, N-[5-[2-cyano-5-[[(3S,5R)-1-methyl-5-(trifluoromethyl)-3-piperidyl]oxy]-4-pyridyl]pyrazolo[1,5-a]pyridin-2-yl]cyclopropanecarboxamide], which IC50 is on record?
Its IC50 is 0.00922 µM.

`N#Cc1cc(-c2ccn3nc(NC(=O)C4CC4)cc3c2)c(NC2CCCC2)cn1` [Example 78, N-[5-[2-cyano-5-(cyclopentylamino)-4-pyridyl]pyrazolo[1,5-a]pyridin-2-yl]cyclopropanecarboxamide] was tested. Which IC50 did it give?
The IC50 was 0.0143 µM.

For `Cc1cc(-c2ccn3nc(NC(=O)C4CC4)cc3c2)c(OC2CN(C(C)C)C2)cn1` [Example 142, N-[5-[5-(1-isopropylazetidin-3-yl)oxy-2-methyl-4-pyridyl]pyrazolo[1,5-a]pyridin-2-yl]cyclopropanecarboxamide], which IC50 is on record?
The IC50 was 0.0448 µM.

Which IC50 does the source give for `CC(C)(C)OC(=O)COc1cnc(C#N)cc1-c1ccn2nc(NC(=O)C3CC3)cc2c1` [Example 55, tert-butyl 2-[[6-Cyano-4-[2-(cyclopropanecarbonylamino)pyrazolo[1,5-a]pyridin-5-yl]-3-pyridyl]oxy]acetate] here?
The IC50 was 0.0096 µM.

Which IC50 does the source give for `COc1cccc(C)c1-c1ccn2nc(NC(=O)C3CC3)cc2c1` [Example 746, N-[5-(2-methoxy-6-methyl-phenyl)pyrazolo[1,5-a]pyridin-2-yl]cyclopropanecarboxamide] here?
Its IC50 is 0.271 µM.

`N#Cc1cc(-c2ccn3nc(NC(=O)C4CC4)cc3c2)c(OCc2ccc(C(F)(F)F)nc2)cn1` [Example 61, N-[5-[2-cyano-5-[[6-(trifluoromethyl)-3-pyridyl]methoxy]-4-pyridyl]pyrazolo[1,5-a]pyridin-2-yl]cyclopropanecarboxamide] was tested. Which IC50 did it give?
The IC50 was 0.0103 µM.

With `N#Cc1cc(-c2ccn3nc(NC(=O)C4CC4)cc3c2)c(OC2(C(F)(F)F)CCNCC2)cn1` [Example 9, N-(5-(2-cyano-5-((4-(trifluoromethyl)piperidin-4-yl)oxy)pyridin-4-yl)pyrazolo[1,5-a]pyridin-2-yl)cyclopropanecarboxamide] as the compound, how does the IC50 read?
The IC50 was 0.152 µM.

With `CO[C@H]1C[C@H](Oc2cnc(C)cc2-c2ccn3nc(NC(=O)C4CC4)cc3c2)C1` [Example 146, trans-N-[5-[5-(3-methoxycyclobutoxy)-2-methyl-4-pyridyl]pyrazolo[1,5-a]pyridin-2-yl]cyclopropanecarboxamide] as the compound, how does the IC50 read?
The IC50 was 0.0352 µM.

How did the IC50 turn out when `N#Cc1cc(-c2ccn3nc(NC(=O)C4CC4)cc3c2)c(N2CC(O)(C(F)(F)F)C2)cn1` [Example 75, N-[5-[2-cyano-5-[3-hydroxy-3-(trifluoromethyl)azetidin-1-yl]-4-pyridyl]pyrazolo[1,5-a]pyridin-2-yl]cyclopropanecarboxamide] was run?
Its IC50 is 0.398 µM.

With `N#Cc1cc(-c2ccn3nc(NC(=O)C4CC4)cc3c2)c(OCc2ccnc(C(F)(F)F)c2)cn1` [Example 62, N-[5-[2-cyano-5-[[2-(trifluoromethyl)-4-pyridyl]methoxy]-4-pyridyl]pyrazolo[1,5-a]pyridin-2-yl]cyclopropanecarboxamide] as the compound, how does the IC50 read?
The IC50 was over 5 µM.

`CCOc1ccccc1-c1ccn2nc(NC(=O)C3CC3)cc2c1` [Example 743, N-[5-(2-ethoxyphenyl)pyrazolo[1,5-a]pyridin-2-yl]cyclopropanecarboxamide] was tested. Which IC50 did it give?
The IC50 was 0.0217 µM.

For `CN1CC[C@H](CNc2cnc(C#N)cc2-c2ccn3nc(NC(=O)C4CC4)cc3c2)C1` [Example 71, N-[5-[2-cyano-5-[[(3R)-1-methylpyrrolidin-3-yl]methylamino]-4-pyridyl]pyrazolo[1,5-a]pyridin-2-yl]cyclopropanecarboxamide], which IC50 is on record?
Its IC50 is 0.0577 µM.

With `CN1CCOC[C@H](Oc2cnc(C#N)cc2-c2ccn3nc(NC(=O)C4CC4)cc3c2)C1` [Example 12, N-[5-[2-cyano-5-[[(6R)-4-methyl-1,4-oxazepan-6-yl]oxy]-4-pyridyl]pyrazolo[1,5-a]pyridin-2-yl]cyclopropanecarboxamide] as the compound, how does the IC50 read?
The IC50 was 0.0133 µM.

For `COc1ccc(C)cc1-c1ccn2nc(NC(=O)C3CC3)cc2c1` [Example 744, N-[5-(2-methoxy-5-methyl-phenyl)pyrazolo[1,5-a]pyridin-2-yl]cyclopropanecarboxamide], which IC50 is on record?
Its IC50 is 0.289 µM.

For `N#Cc1cc(-c2ccn3nc(NC(=O)C4CC4)cc3c2)c(O[C@@H]2CCN(C3CC3)C2)cn1` [Example 25, N-[5-[2-cyano-5-[(3R)-1-cyclopropylpyrrolidin-3-yl]oxy-4-pyridyl]pyrazolo[1,5-a]pyridin-2-yl]cyclopropanecarboxamide], which IC50 is on record?
The IC50 was 0.00145 µM.

For `COc1ccccc1-c1ccn2nc(NC(=O)C3CC3)cc2c1` [Example 742, N-[5-(2-methoxyphenyl)pyrazolo[1,5-a]pyridin-2-yl]cyclopropanecarboxamide], which IC50 is on record?
Its IC50 is 0.417 µM.

`COc1cc(C)ccc1-c1ccn2nc(NC(=O)C3CC3)cc2c1` [Example 745, N-[5-(2-methoxy-4-methyl-phenyl)pyrazolo[1,5-a]pyridin-2-yl]cyclopropanecarboxamide] was tested. Which IC50 did it give?
The IC50 was 3.52 µM.

With `CN(C)CCNc1cnc(C#N)cc1-c1ccn2nc(NC(=O)C3CC3)cc2c1` [Example 2, N-[5-[2-cyano-5-(2-dimethylaminoethylamino)-4-pyridyl]pyrazolo[1,5-a]pyridin-2-yl]cyclopropanecarboxamide] as the compound, how does the IC50 read?
Its IC50 is 0.0691 µM.

For `Cc1cc(-c2ccn3nc(NC(=O)C4CC4)cc3c2)c(OC[C@@H](N)C(C)(C)C)cn1` [Example 149, N-[5-[5-[(2S)-2-amino-3,3-dimethyl-butoxy]-2-methyl-4-pyridyl]pyrazolo[1,5-a]pyridin-2-yl]cyclopropanecarboxamide], which IC50 is on record?
The IC50 was 0.0122 µM.

For `CN1CC2CN(c3cnc(C#N)cc3-c3ccn4nc(NC(=O)C5CC5)cc4c3)CC2C1` (stereo not shown) [Example 90, N-[5-[2-cyano-5-(2-methyl-1,3,3a,4,6,6a-hexahydropyrrolo[3,4-c]pyrrol-5-yl)-4-pyridyl]pyrazolo[1,5-a]pyridin-2-yl]cyclopropanecarboxamide], which IC50 is on record?
The IC50 was 0.0134 µM.

For `CN1CCC[C@H](Oc2cnc(C#N)cc2-c2ccn3nc(NC(=O)C4CC4)cc3c2)C1` [Example 65, N-[5-[2-cyano-5-[[(3S)-1-methyl-3-piperidyl]oxy]-4-pyridyl]pyrazolo[1,5-a]pyridin-2-yl]cyclopropanecarboxamide], which IC50 is on record?
Its IC50 is 0.00871 µM.
